The values that follow come from PubChem BioAssay AID1259407 (Chemical Carcinogenesis Research Information System (CCRIS), 2018).

The subject of the data set is CCRIS mutagenicity, Ames/micronucleus/aberration tests. As to the kind of experiment: CCRIS mutagenicity studies.
Where [1] appears, read: Test System: AMES SALMONELLA TYPHIMURIUM, Strain/Indicator: TA97, Metabolic Activation: HAMSTER, LIVER, S-9, AROCLOR 1254 (10 OR 30%), Method: PREINCUBATION
Setting [2] is: Test System: AMES SALMONELLA TYPHIMURIUM, Strain/Indicator: TA97, Metabolic Activation: NONE, Method: PREINCUBATION
Where [3] appears, read: Test System: AMES SALMONELLA TYPHIMURIUM, Strain/Indicator: TA97, Metabolic Activation: RAT, LIVER, S-9, AROCLOR 1254 (10 OR 30%), Method: PREINCUBATION
Setting [4] is: Test System: AMES SALMONELLA TYPHIMURIUM, Strain/Indicator: TA98, Metabolic Activation: HAMSTER, LIVER, S-9, AROCLOR 1254 (10 OR 30%), Method: PREINCUBATION
[5] abbreviates: Test System: AMES SALMONELLA TYPHIMURIUM, Strain/Indicator: TA98, Metabolic Activation: NONE, Method: PREINCUBATION
Where [6] appears, read: Test System: AMES SALMONELLA TYPHIMURIUM, Strain/Indicator: TA98, Metabolic Activation: RAT, LIVER, S-9, AROCLOR 1254 (10 OR 30%), Method: PREINCUBATION
[7] abbreviates: Test System: AMES SALMONELLA TYPHIMURIUM, Strain/Indicator: TA100, Metabolic Activation: NONE, Method: PREINCUBATION
Where [8] appears, read: Test System: AMES SALMONELLA TYPHIMURIUM, Strain/Indicator: TA1535, Metabolic Activation: HAMSTER, LIVER, S-9, AROCLOR 1254 (10 OR 30%), Method: PREINCUBATION
Setting [9] is: Test System: AMES SALMONELLA TYPHIMURIUM, Strain/Indicator: TA1535, Metabolic Activation: NONE, Method: PREINCUBATION
Setting [10] is: Test System: AMES SALMONELLA TYPHIMURIUM, Strain/Indicator: TA1535, Metabolic Activation: RAT, LIVER, S-9, AROCLOR 1254 (10 OR 30%), Method: PREINCUBATION
[11] abbreviates: Test System: AMES SALMONELLA TYPHIMURIUM, Strain/Indicator: TA100, Metabolic Activation: RAT, LIVER, S-9, AROCLOR 1254, Method: STANDARD PLATE.
[12] abbreviates: Test System: AMES SALMONELLA TYPHIMURIUM, Strain/Indicator: TA98, Metabolic Activation: NONE, Method: STANDARD PLATE.
The mark [13] stands for this setting: Test System: AMES SALMONELLA TYPHIMURIUM, Strain/Indicator: TA100, Metabolic Activation: NONE, Method: STANDARD PLATE.

The source made the active and inactive calls. The rule behind the calls is not given here.

For `c1ccc(COCc2ccccc2)cc1`, the mutagenic call reads like this: under setting [1], “inactive; negative”; under setting [2], “inactive; negative”; under setting [3], “inactive; negative”; under setting [4], “inactive; negative”; under setting [5], “inactive; negative”; under setting [6], “inactive; negative”. The mutagenic call (Test System: AMES SALMONELLA TYPHIMURIUM, Strain/Indicator: TA98, Metabolic Activation: RAT, LIVER, S-9, AROCLOR 1254 (30%), Method: PREINCUBATION) is “inactive; negative”; the mutagenic call (Test System: AMES SALMONELLA TYPHIMURIUM, Strain/Indicator: TA100, Metabolic Activation: HAMSTER, LIVER, S-9, AROCLOR 1254 (10%), Method: PREINCUBATION) was “inactive; negative”; the mutagenic call (Test System: AMES SALMONELLA TYPHIMURIUM, Strain/Indicator: TA100, Metabolic Activation: HAMSTER, LIVER, S-9, AROCLOR 1254 (30%), Method: PREINCUBATION) is “inactive; negative”; the mutagenic call under setting [7] was “inactive; negative”; the mutagenic call (Test System: AMES SALMONELLA TYPHIMURIUM, Strain/Indicator: TA100, Metabolic Activation: RAT, LIVER, S-9, AROCLOR 1254 (10%), Method: PREINCUBATION) is “inactive; negative”; the mutagenic call (Test System: AMES SALMONELLA TYPHIMURIUM, Strain/Indicator: TA100, Metabolic Activation: RAT, LIVER, S-9, AROCLOR 1254 (30%), Method: PREINCUBATION) was “inactive; negative”. The mutagenic call runs as follows: under setting [8], “inactive; negative”; under setting [9], “inactive; negative”; under setting [10], “inactive; negative”.

Take `O=c1c(O)c2c(c3c1ccc1[nH]c4c(ccc5ccccc54)cc13)O2`: the mutagenic call runs as follows: (Test System: AMES SALMONELLA TYPHIMURIUM, Strain/Indicator: TA98, Metabolic Activation: RAT, LIVER, AROCLOR 1254, NADPH GENERATING SYSTEM, Method: STANDARD PLATE) “inactive; negative”; (Test System: AMES SALMONELLA TYPHIMURIUM, Strain/Indicator: TA100, Metabolic Activation: RAT, LIVER, AROCLOR 1254, NADPH GENERATING SYSTEM, Method: STANDARD PLATE) “inactive; negative”; (Test System: CHINESE HAMSTER V-79, Strain/Indicator: V-79/8-AZAGUANINE, Method: STANDARD PLATE) “inactive; negative”.

For the molecule `N#Cc1cccc2cccnc12`, the mutagenic call (Test System: AMES SALMONELLA TYPHIMURIUM, Strain/Indicator: TA100, Metabolic Activation: S-9, Method: PREINCUBATION) was “active; positive”.

In the case of `O=C1c2ccccc2-c2c1ccc1ccccc21`, the mutagenic call under setting [11] is “active; positive”.

For `CC(=O)CN(COC(C)=O)N=O`, the mutagenic call under setting [9] was “active; positive”.

Turning to `CCn1c(N)nc2c3ncc(C)nc3ccc21`, the mutagenic call (Test System: AMES SALMONELLA TYPHIMURIUM, Strain/Indicator: TA98, Metabolic Activation: RAT, LIVER, S-9, AROCLOR 1254, Method: PREINCUBATION) is “active; positive”.

For `CCn1cc(C(=O)O)c(=O)c2cc(F)c(N3CCNC(C)C3)c(F)c21` (stereo not drawn), the mutagenic call is, setting by setting: under setting [12], “inactive; negative”; (Test System: AMES SALMONELLA TYPHIMURIUM, Strain/Indicator: TA98, Metabolic Activation: RAT, LIVER, S-9, PHENOBARBITAL, Method: STANDARD PLATE) “inactive; negative”; under setting [13], “inactive; negative”; (Test System: AMES SALMONELLA TYPHIMURIUM, Strain/Indicator: TA100, Metabolic Activation: RAT, LIVER, S-9, PHENOBARBITAL, Method: STANDARD PLATE) “inactive; negative”; (Test System: AMES SALMONELLA TYPHIMURIUM, Strain/Indicator: TA102, Metabolic Activation: NONE, Method: STANDARD PLATE) “active; positive”; (Test System: CHINESE HAMSTER V-79, Strain/Indicator: V-79 (HGPRT)/6-THIOGUANINE, Metabolic Activation: NONE, Method: STANDARD PLATE) “inactive; negative”.

For the molecule `CCOC(=O)c1ccc(N(O)C=O)cc1`, the mutagenic call by setting is: under setting [12], “inactive; negative”; (Test System: AMES SALMONELLA TYPHIMURIUM, Strain/Indicator: TA98, Metabolic Activation: RAT, LIVER, S-9, AROCLOR 1254, Method: STANDARD PLATE) “inactive; negative”; under setting [13], “inactive; negative”; under setting [11], “inactive; negative”.

As for `CCCCCCCCCC(=O)O`, the mutagenic call under setting [1] is “inactive; negative”; the mutagenic call under setting [2] was “inactive; negative”; the mutagenic call under setting [3] was “inactive; negative”; the mutagenic call under setting [4] is “inactive; negative”; the mutagenic call under setting [5] was “inactive; negative”; the mutagenic call under setting [6] was “inactive; negative”. Further, the mutagenic call is “inactive; negative” (Test System: AMES SALMONELLA TYPHIMURIUM, Strain/Indicator: TA100, Metabolic Activation: HAMSTER, LIVER, S-9, AROCLOR 1254 (10 OR 30%), Method: PREINCUBATION); “inactive; negative” under setting [7]; “inactive; negative” (Test System: AMES SALMONELLA TYPHIMURIUM, Strain/Indicator: TA100, Metabolic Activation: RAT, LIVER, S-9, AROCLOR 1254 (10 OR 30%), Method: PREINCUBATION); “inactive; negative” under setting [8]; “inactive; negative” under setting [9]; “inactive; negative” under setting [10]. In addition, the mutagenic call (Test System: AMES SALMONELLA TYPHIMURIUM, Strain/Indicator: TA1537, Metabolic Activation: HAMSTER, LIVER, S-9, AROCLOR 1254 (10 OR 30%), Method: PREINCUBATION) is “inactive; negative”; the mutagenic call (Test System: AMES SALMONELLA TYPHIMURIUM, Strain/Indicator: TA1537, Metabolic Activation: NONE, Method: PREINCUBATION) was “inactive; negative”; the mutagenic call (Test System: AMES SALMONELLA TYPHIMURIUM, Strain/Indicator: TA1537, Metabolic Activation: RAT, LIVER, S-9, AROCLOR 1254 (10 OR 30%), Method: PREINCUBATION) was “inactive; negative”.

Regarding `O=[N+]([O-])c1ccc2c(c1)-c1cccc3cccc-2c13`, the mutagenic call under setting [12] is “active; positive”.

For the molecule `CN(C)CCCn1cc[n+](C)c1/C=N/O`, the mutagenic call (Test System: AMES SALMONELLA TYPHIMURIUM, Strain/Indicator: TA97, Metabolic Activation: NONE, Method: STANDARD PLATE) was “inactive; negative”; the mutagenic call (Test System: AMES SALMONELLA TYPHIMURIUM, Strain/Indicator: TA97, Metabolic Activation: RAT, LIVER, S-9, Method: STANDARD PLATE) was “inactive; negative”; the mutagenic call under setting [13] is “inactive; negative”; the mutagenic call (Test System: AMES SALMONELLA TYPHIMURIUM, Strain/Indicator: TA100, Metabolic Activation: RAT, LIVER, S-9, Method: STANDARD PLATE) was “inactive; negative”; the mutagenic call (Test System: AMES SALMONELLA TYPHIMURIUM, Strain/Indicator: TA104, Metabolic Activation: NONE, Method: STANDARD PLATE) was “inactive; negative”; the mutagenic call (Test System: AMES SALMONELLA TYPHIMURIUM, Strain/Indicator: TA104, Metabolic Activation: RAT, LIVER, S-9, Method: STANDARD PLATE) was “inactive; negative”. Moreover, the mutagenic call (Test System: AMES SALMONELLA TYPHIMURIUM, Strain/Indicator: TA1537, Metabolic Activation: NONE, Method: STANDARD PLATE) was “inactive; negative”; the mutagenic call (Test System: AMES SALMONELLA TYPHIMURIUM, Strain/Indicator: TA1537, Metabolic Activation: RAT, LIVER, S-9, Method: STANDARD PLATE) is “inactive; negative”; the mutagenic call (Test System: AMES SALMONELLA TYPHIMURIUM, Strain/Indicator: TA1538, Metabolic Activation: NONE, Method: STANDARD PLATE) is “inactive; negative”; the mutagenic call (Test System: AMES SALMONELLA TYPHIMURIUM, Strain/Indicator: TA1538, Metabolic Activation: RAT, LIVER, S-9, Method: STANDARD PLATE) was “inactive; negative”.
